Assay: Human HepG2 cell viability assay in 384 well format
Format: toxicity, cell-based
Parameters: dose 125 nL, time 70.5 hour; cytotoxicity at 70.5 h: concentration not given beside the values
Conditions: HepG2 cells, read-out: Inhibition

Row | SMILES | cytotoxicity at 70.5 h
1 | Cc1nn(C)cc1NC(=O)CN1CCN(C2CCCC2)C(=O)C1 | -6.18%
2 | Cn1nc2c(cc1=O)CN(CC(=O)Nc1nccs1)CC2 | -3.23%
3 | Cc1n[nH]c2c1C(c1ccc(F)cc1)SCC(=O)N2 (centres undefined) | -4.92%
4 | CCc1cc(CNC(=O)N2Cc3ccccc3N(C)CC2C)[nH]n1 (centres undefined) | -0.192%
5 | OC1(CN2CCCC2)COCCN(c2ncnc3[nH]cnc23)C1 (centres undefined) | -0.684%
6 | CCOC(=O)CSc1ccc(-c2nc(CC)no2)cn1 | -2.21%
7 | O=C(O)[C@@H]1CN(C(=O)c2ccc(O)cc2)C[C@H]1c1cccc(F)c1 | 14.4%
8 | Cc1nc(C2CCCN2CCCc2nc3ccccc3o2)no1 (centres undefined) | -1.3%
9 | CN(c1cccnc1N1CCCC1)S(=O)(=O)c1cccnc1 | 3.33%
10 | CN(Cc1ccccc1)C(=O)CCN1CCC2(CC1)[C@H](O)C[C@@H]2O | -8.64%
11 | Cc1nn(-c2ccccc2)cc1C(=O)N1CCCC(n2ccnc2C)C1 (centres undefined) | -4.52%
12 | COc1ccc(OC)c2c(C)cc(N(C)CCCO)nc12 | 4.59%
13 | CCN(CCCc1ccccc1C)S(C)(=O)=O | -3.45%
14 | CC(NC(=O)C1CCCC1)c1nc(-c2ccccc2)c[nH]1 (centres undefined) | 1.26%
15 | Cc1cc(C[S+]([O-])CC(=O)NCC(C)C)no1 (centres undefined) | -1.65%
16 | Fc1ccc(-c2c[nH]c([C@@H]3COCCN3)n2)cc1 | -9.31%
17 | CC(C)c1nc(C2CCCN2CC(=O)Nc2cccnc2)no1 (centres undefined) | -14%
18 | CCc1ccc(C(=O)N2CCCN(Cc3csc(CC)n3)CC2)o1 | 6.45%
19 | CC(C)c1n[nH]c(C2CN(C(=O)c3csnn3)CCO2)n1 (centres undefined) | -3.07%
20 | FC(F)(F)c1csc(N2CCN(Cc3ccccn3)CC2)n1 | -6.63%
21 | c1ccc(CN2CC[C@@H]3O[C@@H](COCC4CCOCC4)CC[C@@H]32)nc1 | -14.4%
22 | O=C(NC1CC1)N1CCN(c2cnccn2)CC1 | -1.17%
23 | O=C(CCN1CCOCC1)Nc1cccc(CNCc2cccs2)c1 | -8.33%

Row | SMILES | cytotoxicity at 70.5 h
24 | Cc1cc(C)c(CNC(=O)NCC(O)c2cccc(F)c2)c(=O)[nH]1 (centres undefined) | -3.53%
25 | N#Cc1ccccc1N1CCN(C(=O)NCCN2CCOCC2)CC1 | 0.377%
26 | Cc1cc(S(=O)(=O)NC(=O)CCc2cccnc2)c(C)s1 | 1.22%
27 | CN1C(=O)CCC12CCN(c1ccc(C#N)cn1)CC2 | -8.99%
28 | O=C(c1cn(Cc2ccccc2)c2ncccc12)N1CCOCC1 | 2.42%
29 | O=C1CC2(CCCCN2CC2CC2)CN1c1ccccc1 (centres undefined) | -3.65%
30 | Cc1noc(C)c1CNC(=O)c1ccc(NC2CC2)nc1 | 5.69%
31 | CCN(Cc1nonc1C)C(=O)c1ccc(Br)o1 | -4.49%
32 | CC(=O)N1CCCN(CCn2nc3ccccn3c2=O)CC1 | -0.882%
33 | CCc1cnc(CN(C)C(C)C(=O)N2CCc3ccccc3C2)s1 (centres undefined) | 0.736%
34 | Cc1nccn1C1CCCN(C(=O)c2cc(O)nc3ccccc23)C1 (centres undefined) | 12.3%
35 | Cc1ccc(CN2CC[C@H]3OCC[C@@H](C(=O)NC4CC4)[C@@H]3C2)o1 | 18.8%
36 | O=C1N(Cc2ccncc2)CCC12CCCN(c1ncc(F)cn1)C2 (centres undefined) | 14.6%
37 | Cc1nn2c(=O)/c(=C\c3cccs3)sc2nc1=O | -5.48%
38 | Cc1cc(C)nc(C2CCCN2S(=O)(=O)N2CCOCC2)n1 (centres undefined) | -4.98%
39 | CN(Cc1nnc(-c2ccco2)o1)Cc1nc2c(s1)CCCC2 | -11.2%
40 | O=C(NC1CCC1)[C@@H]1CCO[C@@H]2CCN(CCc3ccccc3)C[C@H]21 | -3.26%
41 | Cn1ccnc1SCCNC(=O)c1cc(S(N)(=O)=O)ccc1F | -9.32%
42 | CS(=O)(=O)N1CC[C@@H]2[C@@H]1CCN2Cc1ccc2c(c1)OCO2 | -0.795%
43 | CCc1nc(C2CCCN2C(=O)CCc2cccs2)no1 (centres undefined) | -5.42%
44 | CCN1CCO[C@]2(CCC[C@H]2COCc2csc(C)n2)C1 | -7.19%
45 | CCOCc1nn(CC2CC2)c2c1CN(C(=O)c1ccno1)CC2 | -7.44%
46 | O=C(NC[C@]12COC[C@H]1CN(Cc1nccs1)C2)c1ccccc1 | -15%

Row | SMILES | cytotoxicity at 70.5 h
47 | Cc1nc(C(=O)N(C)C2CC(=O)N(Cc3ccccc3)C2=O)cs1 (centres undefined) | -5.65%
48 | Cc1ccccc1-n1nccc1NC(=O)CCOC(C)C | 11.4%
49 | CCSCc1cccc(NC(=O)N(C)Cc2ncnn2C)c1 | -3.07%
50 | COCCN(C)CC1CCCN1S(=O)(=O)Cc1ccccc1F (centres undefined) | 13.2%
51 | CO[C@H]1COCCN(Cc2c[nH]c3ccccc23)C1 | -4%
52 | CCOC(=O)C1(CCOC)CCN(Cc2nccn2CC)CC1 | -7.56%
53 | O=C(c1ccccn1)N1CC[C@H]2C(=O)N(c3ccsc3)CCO[C@H]2C1 | -15.7%
54 | Cc1cc(C)c2nc(CNC3CCCNC3=O)cc(O)c2c1 (centres undefined) | -6.5%
55 | Cc1ccc(C(=O)NS(C)(=O)=O)cc1I | 16.8%
56 | COCCNC(=O)C1(CCCc2cccnc2)CCCN1C (centres undefined) | 13.5%
57 | Cc1cnccc1NCCn1ccnc1C1CCCCC1 | 0.0765%
58 | c1cncc(-c2nnn3c2COCC(CNC2CCOCC2)C3)c1 (centres undefined) | 12.3%
59 | COc1ccc(-c2noc([C@@H]3C[C@H](NC(=O)NC(C)C)CN3C)n2)cc1 | -0.383%
60 | Cc1ccsc1CN(C)C(=O)C1CCCN(C(N)=O)C1 (centres undefined) | -8.56%
61 | Cc1ccc(-c2[nH][nH]c(=O)c2CCN)cc1 | -14.2%
62 | O=C(NC1CCc2nccn2C1)c1ccc(OCC2CC2)nc1 (centres undefined) | -7.7%
63 | CC(NC(=O)c1ccnc(C2CC2)n1)C1(N2CCOCC2)CCCC1 (centres undefined) | -4.36%
64 | N#Cc1ncn(CCC(=O)Nc2ccc(F)c(F)c2)n1 | -9.3%
65 | CCOCC(=O)NCC(CC)(OC)c1ccccc1 (centres undefined) | -12.4%
66 | Cn1cc(CNC2CCc3c(ccc(=O)n3Cc3ccncc3)C2)cn1 (centres undefined) | -15.3%
67 | CN1CCC(NC(=O)Cc2csc(C(C)(C)C)n2)CC1 | -10.5%
68 | O=C(c1cccc(S(=O)(=O)NCCCn2cccn2)c1)N1CCOCC1 | -1.43%
69 | COc1ccc(C(=O)N2CCCC(CNS(C)(=O)=O)C2)cc1F (centres undefined) | -10.9%

Row | SMILES | cytotoxicity at 70.5 h
70 | Cc1ncc(C(=O)NCCNc2ncnc3sccc23)s1 | -2.99%
71 | O=C1C(NCc2nnc3n2CCCC3)CCCN1c1ccccc1 (centres undefined) | -7.11%
72 | CNc1cc(N2CCCC2CNCc2ccco2)ncn1 (centres undefined) | -1.02%
73 | COc1ccc2c(c1)OCC(Cc1cc(N3CCCC3)cnn1)C2 (centres undefined) | 1.96%
74 | FC1(F)CCN(c2ccccc2)CC12CCN(c1ncccn1)C2 (centres undefined) | -1.34%
75 | CN(C)C(=O)c1cnc2n1CCN(Cc1ccsc1)C2 | 2.92%
76 | CC(Nc1ccc(N2C(=O)CCCC2=O)cc1)c1ccc(C#N)cc1 (centres undefined) | -6.87%
77 | Cn1ccc2c(C(=O)N3CCCC3c3noc(C4CC4)n3)cccc21 (centres undefined) | -1.84%
78 | Cc1nnc2n1CCN(CCOc1ccccc1)C2 | -11.4%
79 | Cc1cnn(C2CCCN(C(=O)CCc3cscn3)C2)c1 (centres undefined) | 2.26%
80 | O=C(Nc1cnc(C2CC2)nc1)N1CCC(CN2CCCC2)C1 (centres undefined) | 17.5%
81 | O=C(CCC1CCCO1)NS(=O)(=O)c1ccc(Cl)cc1 (centres undefined) | -5.11%
82 | CNS(=O)(=O)c1csc(C(=O)N(C)Cc2ccccc2C)c1 | 0.0278%
83 | Cc1cccc(C(=O)NCc2ccc(OCCN(C)C)cc2)c1C | -6.51%
84 | COc1ccc(CN(C(=O)C2CCCOC2)c2ccncc2)cc1 (centres undefined) | -3.58%
85 | COc1ccccc1-c1nc(C(=O)N(C)C)n2ccncc12 | -8.75%
86 | Cn1cc(C(=O)Nc2cccc(-c3ccc4c(c3)CCO4)n2)ccc1=O | 12%
87 | C/C=C(/C)C(=O)NS(=O)(=O)c1ccc(C(F)(F)F)cn1 | -18.7%
88 | O=C1[C@H]2CN(S(=O)(=O)c3ccccc3)C[C@H]2CN1Cc1cccnc1 | -15.6%
89 | CCN1CC(C(=O)NCc2noc(Cc3ccccc3)n2)CCC1=O (centres undefined) | -12.4%
90 | CS(=O)(=O)N1C[C@H]2CCCN(Cc3nccs3)[C@H]2C1 | 14.5%
91 | COc1ccc(-c2nnc(CN3CCCC3Cn3cncn3)o2)cc1 (centres undefined) | 15.3%
92 | c1cnc(N2CC3(CCN(CC4CCOC4)CC3)c3ccccc32)nc1 (centres undefined) | 0.807%

Row | SMILES | cytotoxicity at 70.5 h
93 | c1ccc2c(Cc3nnc([C@H]4CCN(CC5CC5)C4)o3)c[nH]c2c1 | -0.383%
94 | COC(=O)C1=NOC(Cc2cc(OC)c3c(c2)OCO3)C1 (centres undefined) | -20.2%
95 | O=C(O)[C@@H]1CN(C(=O)Cc2ccccc2Cl)C[C@H]1C1CC1 | -15.8%
96 | Cc1ccc2c(c1)C(=O)CC1(CCN(Cc3ccccc3)CC1)O2 | -2.96%
97 | COc1cccc(OCCNCc2c(C)nn(C)c2N(C)C)c1 | -4.8%
98 | CC(C(=O)N1CCC(Nc2cccnn2)CC1)n1ccnc1 (centres undefined) | -8.6%
99 | CN(C)c1ccc(CN2CCN(c3ccc(C#N)cc3)C(=O)C2)cn1 | -7.99%
100 | CCS(=O)(=O)c1nccn1-c1cccc(F)c1 | -9.95%
101 | Cc1oc(-c2cc(F)cc(F)c2)nc1CN1C[C@@H](C)NC[C@@H]1C | -11.7%
102 | COc1ccccc1S(=O)(=O)N1CCC2(CC1)[C@H](O)C[C@@H]2O | -10.2%
103 | CCOCC(=O)Nc1cc(-c2cccc(F)c2F)n[nH]1 | -7.88%
104 | Cc1cn[nH]c1C1CCCCN1C(=O)CCc1c(C)n[nH]c1C (centres undefined) | -2.55%
105 | Cc1nnc(N2CCCC3(CN(Cc4ccc(C)s4)CCO3)C2)o1 (centres undefined) | -8.9%
106 | c1cnc(NCc2cncc3c2CCN(CC2CC2)C3)nc1 | 3.44%
107 | c1ccc(-c2cc(CNCCCN3CCCCC3)c3nnnn3c2)cc1 | -0.978%
108 | Fc1ccc(N2CCC3(CC2)CC(OCc2cccnc2)CO3)cc1 (centres undefined) | 0.624%
109 | CN1CCC(N2CCC[C@H]2c2nc(-c3cncnc3N)no2)CC1 | -0.402%
110 | Cc1ccoc1C(=O)NC1CCN(Cc2csc3c(F)cccc23)CC1 | 18.8%
111 | Cc1cc(C(=O)N2C[C@H]3CC[C@@H]2CN(C(=O)c2ccncc2)C3)cs1 | -1.99%
112 | CN1CCN(CC2CC2)C(=O)c2cnc(N3CCC(CO)CC3)nc21 | -4.14%
113 | CCCS(=O)(=O)N1C[C@@H]2CN(Cc3ccco3)CCO[C@@H]2C1 | -2.23%
114 | Cc1noc([C@@H]2C[C@H](NC(=O)NC(C)C)CN2C)n1 | -0.832%

Source: ChEMBL document CHEMBL3507680, “University of Dundee, Gates Library screen for HepG2 cell viability”
